The NIST ThermoML archive (doi:10.1016/j.jct.2014.02.008)

Assay: cn = amount concentration of the nth substance listed, in mol/dm3
Details: 298.15 K, 101 kPa, Liquid, Taylor dispersion method

NCCCC[C@H](N)C(=O)O [L-lysine] + O
Details	binary diffusion coefficient [m2/s]
c1 = 0.001	6.66e-10
c1 = 0.005	6.62e-10
c1 = 0.01	6.61e-10
c1 = 0.02	6.59e-10
c1 = 0.03	6.52e-10
c1 = 0.05	6.46e-10
c1 = 0.1	6.26e-10
